Results taken from ChEMBL document CHEMBL1201862, “PubChem BioAssay data set” (2004).
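Exposure lasted 48 hours, with cells grown in 96-well plates and compounds tested at five concentrations. The concentration for 50% growth inhibition is given as GI50.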 Calls of active or inactive are those of the source. No stated cut-off is given here; in the data, active = GI50 up to about 1.1 µM and inactive = higher.

What was measured:
Assay in all cases: DTP human tumour cell line panel, 48 h
786-0 = test system: 786-0
A498 = test system: A498
A549 = test system: A549
ACHN = test system: ACHN
BT-549 = test system: BT-549
CAKI-1 = test system: CAKI-1
CCRF-CEM = test system: CCRF-CEM
COLO 205 = test system: COLO 205
DU-145 = test system: DU-145
HCC 2998 = test system: HCC 2998
HCT-116 = test system: HCT-116
HCT-15 = test system: HCT-15
HL-60 = test system: HL-60
HOP-62 = test system: HOP-62
HOP-92 = test system: HOP-92
HT-29 = test system: HT-29
Hs-578T = test system: Hs-578T
IGROV-1 = test system: IGROV-1
K562 = test system: K562
KM12 = test system: KM12
LOX IMVI = test system: LOX IMVI
M14 = test system: M14
MCF7 = test system: MCF7
MDA-MB-231 = test system: MDA-MB-231
MDA-MB-435 = test system: MDA-MB-435
MDA-N = test system: MDA-N
MOLT-4 = test system: MOLT-4
Malme-3M = test system: Malme-3M
NCI-H23 = test system: NCI-H23
NCI-H460 = test system: NCI-H460
NCI/ADR-RES = test system: NCI/ADR-RES
OVCAR-3 = test system: OVCAR-3
OVCAR-4 = test system: OVCAR-4
OVCAR-5 = test system: OVCAR-5
PC-3 = test system: PC-3
RPMI-8226 = test system: RPMI-8226
RXF 393 = test system: RXF 393
SF-268 = test system: SF-268
SF-295 = test system: SF-295
SF-539 = test system: SF-539
SK-MEL-28 = test system: SK-MEL-28
SK-MEL-2 = test system: SK-MEL-2
SK-MEL-5 = test system: SK-MEL-5
SK-OV-3 = test system: SK-OV-3
SN12C = test system: SN12C
SNB-19 = test system: SNB-19
SNB-75 = test system: SNB-75
SR = test system: SR
SW-620 = test system: SW-620
T47D = test system: T47D
TK-10 = test system: TK-10
U-251 = test system: U-251
UACC-257 = test system: UACC-257
UACC-62 = test system: UACC-62
UO-31 = test system: UO-31
EKVX = test system: EKVX
NCI-H226 = test system: NCI-H226
NCI-H522 = test system: NCI-H522
OVCAR-8 = test system: OVCAR-8

Q: What does the source list for [N-]=[N+]=Nc1nc2ccccc2c(N=[N+]=[N-])c1Cl?
A: GI50 (786-0): 56.2 µM (inactive); GI50 (A498): 6.81 µM (inactive); GI50 (A549): > 100 µM (inactive); GI50 (ACHN): > 100 µM (inactive); GI50 (BT-549): 28.6 µM (inactive); GI50 (CAKI-1): > 100 µM (inactive); GI50 (CCRF-CEM): > 100 µM (inactive); GI50 (COLO 205): > 100 µM (inactive); GI50 (DU-145): > 100 µM (inactive); GI50 (HCC 2998): > 100 µM (inactive); GI50 (HCT-116): > 100 µM (inactive); GI50 (HCT-15): > 100 µM; GI50 (HL-60): > 100 µM (inactive); GI50 (HOP-62): 79.1 µM (inactive); GI50 (HOP-92): 30.3 µM (inactive); GI50 (HT-29): > 100 µM (inactive); GI50 (Hs-578T): 31.6 µM (inactive); GI50 (IGROV-1): > 100 µM (inactive); GI50 (K562): > 100 µM (inactive); GI50 (KM12): > 100 µM (inactive); GI50 (LOX IMVI): > 100 µM (inactive); GI50 (M14): > 100 µM (inactive); GI50 (MCF7): > 100 µM (inactive); GI50 (MDA-MB-231): > 100 µM (inactive); GI50 (MDA-MB-435): > 100 µM (inactive); GI50 (MDA-N): > 100 µM (inactive); GI50 (MOLT-4): > 100 µM (inactive); GI50 (Malme-3M): > 100 µM (inactive); GI50 (NCI-H23): > 100 µM (inactive); GI50 (NCI-H460): > 100 µM (inactive); GI50 (NCI/ADR-RES): > 100 µM (inactive); GI50 (OVCAR-3): > 100 µM (inactive); GI50 (OVCAR-4): 68.9 µM (inactive); GI50 (OVCAR-5): > 100 µM (inactive); GI50 (PC-3): > 100 µM (inactive); GI50 (RPMI-8226): > 100 µM (inactive); GI50 (RXF 393): 25.6 µM (inactive); GI50 (SF-268): > 100 µM (inactive); GI50 (SF-295): > 100 µM (inactive); GI50 (SF-539): 96.8 µM (inactive); GI50 (SK-MEL-28): > 100 µM (inactive); GI50 (SK-MEL-2): > 100 µM (inactive); GI50 (SK-MEL-5): > 100 µM (inactive); GI50 (SK-OV-3): 92 µM (inactive); GI50 (SN12C): > 100 µM (inactive); GI50 (SNB-19): > 100 µM (inactive); GI50 (SNB-75): 24.9 µM (inactive); GI50 (SR): > 100 µM (inactive); GI50 (SW-620): > 100 µM (inactive); GI50 (T47D): > 100 µM (inactive); GI50 (TK-10): > 100 µM (inactive); GI50 (U-251): > 100 µM (inactive); GI50 (UACC-257): > 100 µM (inactive); GI50 (UACC-62): 98.4 µM (inactive); GI50 (UO-31): > 100 µM (inactive)

Q: C#CCOC(=O)C(N)CCCNC(=N)N (centres undefined) was tested. Which GI50 (786-0) did it give?
A: > 100 µM (inactive)

Q: And the GI50 (A498)?
A: > 100 µM (inactive)

Q: What about the GI50 (A549) of the same compound?
A: > 100 µM (inactive)

Q: And the GI50 (ACHN)?
A: > 100 µM (inactive)

Q: And the GI50 (BT-549)?
A: > 100 µM (inactive)

Q: What about the GI50 (CAKI-1) of the same compound?
A: > 100 µM (inactive)

Q: And the GI50 (CCRF-CEM)?
A: > 100 µM (inactive)

Q: What about the GI50 (COLO 205) of the same compound?
A: > 100 µM (inactive)

Q: What about the GI50 (DU-145) of the same compound?
A: > 100 µM (inactive)

Q: And the GI50 (EKVX)?
A: > 100 µM (inactive)

Q: What about the GI50 (HCC 2998) of the same compound?
A: > 100 µM (inactive)

Q: What about the GI50 (HCT-116) of the same compound?
A: > 100 µM (inactive)

Q: And the GI50 (HCT-15)?
A: > 100 µM

Q: And the GI50 (HL-60)?
A: > 100 µM (inactive)

Q: And the GI50 (HOP-62)?
A: > 100 µM (inactive)

Q: And the GI50 (HOP-92)?
A: > 100 µM (inactive)

Q: And the GI50 (HT-29)?
A: > 100 µM (inactive)

Q: What about the GI50 (Hs-578T) of the same compound?
A: > 100 µM (inactive)

Q: And the GI50 (IGROV-1)?
A: > 100 µM (inactive)

Q: And the GI50 (KM12)?
A: > 100 µM (inactive)

Q: And the GI50 (LOX IMVI)?
A: > 100 µM (inactive)

Q: What about the GI50 (M14) of the same compound?
A: > 100 µM (inactive)

Q: And the GI50 (MCF7)?
A: > 100 µM (inactive)

Q: And the GI50 (MDA-MB-231)?
A: > 100 µM (inactive)

Q: What about the GI50 (MDA-MB-435) of the same compound?
A: > 100 µM (inactive)

Q: And the GI50 (MDA-N)?
A: > 100 µM (inactive)

Q: And the GI50 (MOLT-4)?
A: > 100 µM (inactive)

Q: What about the GI50 (Malme-3M) of the same compound?
A: > 100 µM (inactive)

Q: And the GI50 (NCI-H226)?
A: > 100 µM (inactive)

Q: And the GI50 (NCI-H23)?
A: > 100 µM (inactive)

Q: And the GI50 (NCI-H460)?
A: > 100 µM (inactive)

Q: And the GI50 (NCI-H522)?
A: > 100 µM (inactive)

Q: What about the GI50 (NCI/ADR-RES) of the same compound?
A: > 100 µM (inactive)

Q: What about the GI50 (OVCAR-4) of the same compound?
A: > 100 µM (inactive)

Q: And the GI50 (OVCAR-5)?
A: > 100 µM (inactive)

Q: And the GI50 (OVCAR-8)?
A: > 100 µM (inactive)

Q: What about the GI50 (PC-3) of the same compound?
A: > 100 µM (inactive)

Q: What about the GI50 (RPMI-8226) of the same compound?
A: > 100 µM (inactive)

Q: What about the GI50 (RXF 393) of the same compound?
A: > 100 µM (inactive)

Q: And the GI50 (SF-268)?
A: > 100 µM (inactive)

Q: What about the GI50 (SF-539) of the same compound?
A: > 100 µM (inactive)

Q: What about the GI50 (SK-MEL-28) of the same compound?
A: > 100 µM (inactive)

Q: And the GI50 (SK-MEL-2)?
A: > 100 µM (inactive)

Q: What about the GI50 (SK-MEL-5) of the same compound?
A: > 100 µM (inactive)

Q: What about the GI50 (SN12C) of the same compound?
A: > 100 µM (inactive)

Q: What about the GI50 (SNB-19) of the same compound?
A: > 100 µM (inactive)

Q: What about the GI50 (SNB-75) of the same compound?
A: > 100 µM (inactive)

Q: What about the GI50 (SR) of the same compound?
A: > 100 µM (inactive)

Q: And the GI50 (SW-620)?
A: > 100 µM (inactive)

Q: And the GI50 (T47D)?
A: > 100 µM (inactive)

Q: And the GI50 (TK-10)?
A: > 100 µM (inactive)

Q: And the GI50 (U-251)?
A: > 100 µM (inactive)

Q: What about the GI50 (UACC-257) of the same compound?
A: > 100 µM (inactive)

Q: And the GI50 (UO-31)?
A: > 100 µM (inactive)
